Results published in patent US20210174908A1, “CLASSIFICATION OF TUMOR MICROENVIRONMENTS” (Oncxerna Therapeutics, Inc., priority 2019, published 2021).

Key:
MDSC = settings: pre-clinical models; cited from earlier work
[1] = test system: patients with gastric cancer; assay: Retrospective population-based TME classification of gastric cancer patients who received pembrolizumab (n = 45), RECIST response; assay type: in vivo, human; settings: for Class response rate: population-based classifier
Excerpt: The analysis included 45 gastric cancer tumor samples.
The ORR for all patients was 27% (12/45). […] When the patients were retrospectively analyzed and placed in the Class IA, the response rate was 80%; and in Class IS, the response rate was 18%.

gastric cancer = assay: ANN classifier applied to pembrolizumab monotherapy gastric cancer data, threshold / probability score optimization; assay type: in vivo, human
Excerpt: Sensitivity refers to the number of true biomarker responders divided by number of actual responders; specificity refers to the number of true biomarker non-responders divided by number of actual non-responders; PPV refers to the number of true biomarker responders divided by number of total predicted biomarker responders (how well the biomarker-positive rating performs); and NPV—refers to the number of true biomarker non-responders divided by number of total predicted biomarker non-responders (how well the biomarker-negative rating performs).

[2] = test system: HER2 negative metastatic breast cancer, NSCLC, hepatocellular carcinoma; settings: with paclitaxel (HER2 negative metastatic breast cancer), paclitaxel-carboplatin (advanced NSCLC), sorafenib (hepatocellular carcinoma), docetaxel (non-squamous NSCLC); cited from earlier work
solid tumors = assay: Navicixizumab Phase 1A dose-escalation trial, retrospective Z-score and ANN biomarker analysis (n = 39); assay type: in vivo, human; settings: for Patients with benefit (SD or better): gynecological cancers
Description: A retrospective data analysis of a Phase 1A dose-escalation trial for patients with solid tumors. […] Patients with the above cancers had biopsies collected. Exploratory predictive biomarkers such as DLL4 and VEGF were measured in FFPE tumor specimens, either archived or fresh core needle biopsied at study entry (2 FFPE cores were preferred whenever possible) by immunohistochemistry. […] In the biomarker-positive subset, 48% achieved SD or better.
Model performance is tabulated in TABLE 40; and abbreviations and definitions are as follows; ACC is accuracy; AUC ROC is area under the receiving operator characteristic curve; Sensitivity is the number of true biomarker responders divided by number of actual responders; Specificity is the number of true biomarker non-responders divided by number of actual non-responders; PPV is positive predictive value, i.e., number of true biomarker responders divided by number of total predicted biomarker responders; NPV is negative predictive value, i.e., number of true biomarker non-responders divided by number of total predicted biomarker non-responders.

CCCc1nn(C)c2c(=O)[nH]c(-c3cc(S(=O)(=O)N4CCN(C)CC4)ccc3OCC)nc12 [sildenafil]
Effect on MDSC functions (MDSC): significantly inhibited the MDSC functions

Pembrolizumab
ORR (CR + PR) or class response rate ([1]; All (ORR), n = 45): 12/45 (27%)
CR ([1]; All, n = 45, patients/total): 3/45
PD ([1]; All, n = 45, patients/total): 18/45
PR ([1]; All, n = 45, patients/total): 9/45
Class response rate ([1]; Class A): 0%
Class response rate ([1]; Class IA, CR+PR in class / patients in class): 80%
Class response rate ([1]; Class ID): 12%
Class response rate ([1]; Class IS): 18%
Overall Response Rate (ORR) ([1]; all patients, n = 45, CR+PR divided by total number of patients (RECIST)): 27%
ORR (CR + PR) or class response rate ([1]; class A): 0/8 (0%)
CR ([1]; class A, patients/class): 0/8
PD ([1]; class A, patients/class): 3/8
PR ([1]; class A, patients/class): 0/8
ORR (CR + PR) or class response rate ([1]; class IA): 8/10 (80%)
CR ([1]; class IA, patients/class): 2/10
PD ([1]; class IA, patients/class): 2/10
PR ([1]; class IA, patients/class): 6/10
ORR (CR + PR) or class response rate ([1]; class ID): 2/16 (12%)
CR ([1]; class ID, patients/class): 0/16
PD ([1]; class ID, patients/class): 7/16
PR ([1]; class ID, patients/class): 2/16
ORR (CR + PR) or class response rate ([1]; class IS): 2/11 (18%)
CR ([1]; class IS, patients/class): 1/11
PD ([1]; class IS, patients/class): 6/11
PR ([1]; class IS, patients/class): 1/11
Biomarker positive Overall Response Rate (ORR) (gastric cancer; Option 1: optimized threshold, both IS and IA groups (10/14)): 70%
Biomarker-positive ORR (gastric cancer; Option 2: optimized threshold, only the IA subgroup (8/8)): 100%
Biomarker positive Overall Response Rate (ORR) (gastric cancer; before threshold optimization): 80%

B1: Bavituximab (antibody, V domains shown)
VH: EVQLQQSGPELEKPGASVKLSCKASGYSFTGYNMNWVKQSHGKSLEWIGHIDPYYGDTSYNQKFRGKATLTVDKSSSTAYMQLKSLTSEDSAVYYCVKGGYYGHWYFDVWGAGTTVTVSS
VL: DIQMTQSPSSLSASLGERVSLTCRASQDIGSSLNWLQQGPDGTIKRLIYATSSLDSGVPKRFSGSRSGSDYSLTISSLESEDFVDYYCLQYVSSPPTFGAGTKLELK
notes: PS-targeting antibody
Anti-tumor effects in clinical trials [2]: Promising anti-tumor effects

B2: Navicixizumab (antibody, chains of the INN, looked up, V domains shown)
VH: QVQLVQSGAEVKKPGASVKISCKASGYSFTAYYIHWVKQAPGQGLEWIGYISNYNRATNYNQKFKGRVTFTTDTSTSTAYMELRSLRSDDTAVYYCARDYDYDVGMDYWGQGTLVTVSS
VL: DIVMTQSPDSLAVSLGERATISCRASESVDNYGISFMKWFQQKPGQPPKLLIYAASNQGSGVPDRFSGSGSGTDFTLTISSLQAEDVAVYYCQQSKEVPWTFGGGTKVEIK
VH2: QVQLVQSGAEVKKPGASVKVSCKASGYTFTNYWMHWVRQAPGQGLEWMGDINPSNGRTSYKEKFKRRVTLSVDKSSSTAYMELSSLRSEDTAVYFCTIHYDDKYYPLMDYWGQGTLVTVSS
VL2: B2 VL
notes: anti-VEGF/anti-DLL4 bispecific antibody
Patients achieving SD (Stable Disease) or better (RECIST 1.1) (solid tumors; all-comers biomarker subset, n = 39): 38%
Patients achieving SD or better (solid tumors; biomarker-positive subset): 48%
Patients with benefit (SD or better) (solid tumors; biomarker-negative (n=6)): 0%
Patients with benefit (SD or better) (solid tumors; biomarker-positive (n=12)): 58%
